Where a name gives a salt, the structure may show the parent alone.
Assays:
[1] = Polymer screening: DAB sulfate precipitation after KHSO4 addition (visual); assay type: physicochemical; details: additive in DAB chromogen solution
Method: One embodiment of a DAB base solution comprises DAB chromogen, one or more enhancers, and a stabilizer. […] Exemplary base solutions comprise 5.5 mM DAB, 10 mM imidazole, 10 mM 2-hydroxypyridine, and 1 mM sodium metabisulfite, with a pH of 2.5±0.1. In one embodiment, these compositions were tested using KHSO4 concentrations ranging from 0 to about 10 mM; more typically 0, 1.37, 2.75 and 8.0 mM, with DAB sulfate precipitation being induced at 4° C. overnight.
Polymers were screened for their impact on DAB sulfate precipitation formation by combining an enhanced DAB base solution containing a set amount of the polymer with select molar ratios of potassium hydrogen sulfate, KHSO4, relative to DAB. The enhanced DAB base solution used comprised 5.5 mM DAB·4HCl, 10 mM imidazole, 10 mM 2-hydroxypyridine, 1 mM sodium metabisulfite and 0.05% w/v Brij 35 at pH=2.3±0.1. The potassium hydrogen sulfate concentrations screened were 2.75 and 8.0 mM. […] Solutions were monitored for physical changes (i.e. color or precipitation).
Candidate polymers were screened for their impact on DAB sulfate precipitation formation by combining an enhanced DAB base solution containing a set amount of the polymer with select molar ratios of potassium hydrogen sulfate, KHSO4, relative to DAB. […] Solutions were monitored for physical changes (i.e. color or precipitation).

[2] = Water solubility of DAB-polymer complex in chromogen solution; assay type: physicochemical
From the text: Sulfate and sulfonate polymers are believed to form a DAB-polymer salt complex where the hydrophilic polymer backbone helps maintain water solubility.

Structure (SMILES)	inhibition of DAB sulfate precipitation (in words) [1]	formation of water soluble DAB-polymer complex (in words) [2]
CC(O)CO (centres unmarked) [1,2-propanediol]	failed to inhibit DAB sulfate precipitation	–
NCCOS(=O)(=O)O [2-aminoethylhydrogen sulfate]	–	did not form water soluble DAB complexes
